Where two headings read alike, the source gives them in different places.
Key:
[1] = test system: recombinant adenoviruses H5.010CBALP and H5.010CMVlacZ; experiment: Lung-directed adenovirus gene transfer and readministration, transgene expression by histochemistry (Example 2); assay type: in vivo, C57BL/6 mice; settings: lung, readministered day 28, read day 31
Protocol: Female C57BL/6 mice (6˜8 week old) were infected with suspensions of H5.010CBALP (1×10^9 pfu in 50 μl of PBS) via the trachea at day 0 and similarly with H5.010CMVlacZ at day 28. One group of such mice was used as a control. Another group of mice were acutely depleted of CD4^+ cells by i.p. injection of antibody to CD4^+ cells (GK1.5; ATCC No. TIB207, 1:10 dilution of ascites) at the time of the initial gene therapy (days −3, 0, and +3). A third group of mice was injected with IL-12 (1 μg intratracheal or 2 μg, i.p. injections) at the time of the first administration of virus (days 0 and +1). A fourth group of mice was injected with gamma interferon. (1 μg intratracheal or 2 μg, i.p. injections) at the time of the first administration of virus (days 0 and +1).
When mice were subsequently euthanized and necropsied at days 3, 28, or 31, lung tissues were prepared for cryosections, while bronchial alveolar lavage (BAL) and mediastinal lymph nodes (MLN) were harvested for immunological assays.
The lung tissues were evaluated for ALP expression at day 3 and day 28 by histochemical staining following the procedures of Yang I, cited above. β-galactosidase expression was assayed at day 31 by X-gal histochemical staining. The results described below were obtained from the alkaline phosphatase histochemical stains (magnification ×100) or β-galactosidase X-gal stains (magnification ×100).

[2] = test system: human Ad5 recombinant vector; experiment: Neutralizing antibody to adenovirus in BAL (Hela cell lacZ transduction); assay type: in vivo, C57BL/6 mice; settings: day 28, versus control mice
Protocol: BAL samples obtained from animals 28 days after primary exposure to recombinant virus were evaluated for neutralizing antibodies to adenovirus and anti-adenovirus antibody isotypes as follows. The same four groups of C57BL/6 mice, i.e., control, CD4^+ depleted, IL-12 treated and IFN-γ treated, were infected with H5.010BALP. Neutralizing antibody was measured in serially-diluted BAL samples (100 μl) which were mixed with H5.010CBlacZ (1×10^6 pfu in 20 μl), incubated for 1 hour at 37° C., and applied to 80% confluent Hela cells in 96 well plates (2×10^4 cells per well). After 60 minutes of incubation at 37° C., 100 μl of DMEM containing 20% FBS was added to each well. Cells were fixed and stained for β-galactosidase expression the following day.
(§1) The results are shown graphically in FIGS. 1A through 1C, which summarize neutralizing antibody titer, and the relative amounts (OD405) of IgG and IgA present in BAL samples.

H5.010CBlacZ = experiment: Adenovirus-specific IgG and IgA in BAL by ELISA; assay type: in vivo, C57BL/6 mice; settings: day 28, versus control mice
Protocol: Adenovirus-specific antibody isotype was determined in BAL by using an enzyme-linked immunosorbent assay (ELISA). Briefly, 96-well plates were coated with 100 μl of PBS containing 5×10^9 particles of H5.010CBlacZ for 18 hours at 4° C. The wells were washed 5 times with PBS. After blocking with 200 μl of 2% BSA in PBS, the plates were rinsed once with PBS and incubated with 1:10 diluted BAL samples for 90 minutes at 4° C. Thereafter, the wells were extensively washed and refilled with 100 μl of 1:1000 diluted ALP-conjugated anti-mouse IgG or IgA (Sigma). The plates were incubated, subsequently washed 5 times, and 100 μl of the substrate solution (p-nitrophenyl phosphate, PNPP) was added to each well. Substrate conversion was stopped by the addition of 50 μl of 0.1M EDTA, and reactions were read at 405 nm.
as §1

[3] = test system: recombinant adenoviruses H5.010CBALP and H5.010CMVlacZ; experiment: Liver-directed adenovirus gene transfer and readministration (Example 3); assay type: in vivo, C57BL/6 mice; settings: liver, readministered day 28, read day 31
Protocol: Experiments substantially identical to those described in Example 2 above were conducted in which viral vectors were administered into the blood for introduction of the transgene into the liver (rather than intratracheal delivery into the lung).
Female C57BL/6 mice (6-8 weeks old) were injected with suspensions of H5.010CBALP (1×10^9 pfu in 50 μl of PBS) i.p. at day 0 and similarly with H5.010CMVlacZ at day 28. One group of such mice was used as a control. Another group of mice was acutely depleted of CD4^+ cells by i.p. injection of antibody to CD4^+ cells (GK1.5; ATCC No. TIB207, 1:10 dilution of ascites) at the time of the initial gene therapy (days −3, 0, and +3). A third group of mice was injected with IL-12 (2 μg, i.p. injections) at the time of the first administration of virus (days 0 and +1). A fourth group of mice was injected with gamma interferon (2 μg, i.p. injections) at the time of the first administration of virus (days 0 and +1) .
When mice were subsequently euthanized and necropsied at days 3, 28, or 31, liver tissues were prepared for cryosections according to the procedures used above for lung tissue in Example 2.
The cryosection results were substantially similar for liver-directed gene therapy according to this method as for the lung-directed therapy of Example 2 above. The results described below were obtained from the alkaline phosphatase histochemical stains (magnification ×100) or β-galactosidase X-gal stains (magnification ×100).

[4] = test system: E1-deleted adenovirus (H5.010CMVlacZ, H5.010CBALP)

Molecule	gene transfer upon second administration of virus (lacZ) [1]	neutralizing antibody in BAL [2]	virus specific IgA in BAL (H5.010CBlacZ)	gene transfer upon second administration of virus (lacZ) [3]	transgene expression ([4]; liver)	formation of neutralizing antibody ([4]; liver, at higher doses)	vector readministration ([4]; liver, at higher doses)	CD4 and CD8 T helper cell activation to adenovirus capsid protein ([4]; liver, short course at the time of virus delivery)	formation of neutralizing antibodies ([4]; lung)	transgene expression ([4]; lung)
gamma interferon [IFN-γ]	efficient gene transfer was accomplished upon a second administration of virus	decreased as compared to the control animals not treated with cytokine, but not to the extent obtained with those treated with IL-12	decreased as compared to the control animals not treated with cytokine, but not to the extent obtained with those treated with IL-12	efficient gene transfer was accomplished upon a second administration of virus	–	–	–	–	–	–
O=P1(N(CCCl)CCCl)NCCCO1 (stereo not shown) [cyclophosphamide]	–	–	–	–	transgene expression was prolonged	formation of neutralizing antibody was prevented	allowing successful vector readministration	successfully interrupt both CD4 and CD8 T helper cell activation	prevented formation of neutralizing antibodies at all doses	stabilized transgene expression at high dose

— patent US6372208B1, “Method of reducing an immune response to a recombinant virus” (The Trustees of the University of Pennsylvania, priority 1996, dated 2002)
